Test results as given in ChEMBL document CHEMBL1143413, “Synergistic effect of posaconazole and caspofungin against clinical zygomycetes” (Antimicrob Agents Chemother, 2007).
Converted amounts (≈) assume the structure as drawn.

What was measured:
[1] = Toxicity in invasive zygomycosis diseased patient assessed as mortality; format: organism-based; settings: human, in vivo; read-out: Activity
Rhizopus [2] = assay: Antifungal activity against Rhizopus strain 0 zygomycota by conventional morphological method; format: functional
Rhizopus [3] = assay: Antifungal activity against Rhizopus strain 3 zygomycota by conventional morphological method; format: functional
Rhizopus [4] = assay: Antifungal activity against Rhizopus strain 8 zygomycota by conventional morphological method; format: functional
Absidia [5] = assay: Antifungal activity against Absidia strain 11 zygomycota by conventional morphological method; format: functional
Absidia [6] = assay: Antifungal activity against Absidia strain 17 zygomycota by conventional morphological method; format: functional
Absidia [7] = assay: Antifungal activity against Absidia strain 18 zygomycota by conventional morphological method; format: functional
Cunninghamella = assay: Antifungal activity against Cunninghamella sp. strain 12 zygomycota by conventional morphological method; format: functional
Syncephalastrum = assay: Antifungal activity against Snycephalastrum sp. strain 23 zygomycota by conventional morphological method; format: functional
Rhizomucor = assay: Antifungal activity against Rhizomucor sp. strain 25 zygomycota by conventional morphological method; format: functional
Mucor [8] = assay: Antifungal activity against Mucor strain 28 zygomycota by conventional morphological method; format: functional
Mucor [9] = assay: Antifungal activity against Mucor strain 39 zygomycota by conventional morphological method; format: functional
Mucor [10] = assay: Antifungal activity against Mucor strain 43 zygomycota by conventional morphological method; format: functional

With `CC[C@@H]([C@H](C)O)n1ncn(-c2ccc(N3CCN(c4ccc(OC[C@@H]5CO[C@@](Cn6cncn6)(c6ccc(F)cc6F)C5)cc4)CC3)cc2)c1=O` [POSACONAZOLE] the mortality [1] was 30%, the MIC (Rhizopus [2]) was 1 µg/mL (≈ 1.43 µM) and the MIC (Rhizopus [3]) was 1 µg/mL (≈ 1.43 µM). It also gave an MIC (Rhizopus [4]) of 1 µg/mL (≈ 1.43 µM), an MIC (Absidia [5]) of 1 µg/mL (≈ 1.43 µM) and an MIC (Absidia [6]) of 1 µg/mL (≈ 1.43 µM). It also gave an MIC (Absidia [7]) of 0.5 µg/mL (≈ 0.713 µM), an MIC (Cunninghamella) of 1 µg/mL (≈ 1.43 µM) and an MIC (Syncephalastrum) of 1 µg/mL (≈ 1.43 µM). The MIC (Rhizomucor) was 2 µg/mL (≈ 2.85 µM), the MIC (Mucor [8]) was 0.5 µg/mL (≈ 0.713 µM) and the MIC (Mucor [9]) was 1 µg/mL (≈ 1.43 µM). For the same compound, the MIC (Mucor [10]) was 0.5 µg/mL (≈ 0.713 µM).
For `CC[C@H](C)C[C@H](C)CCCCCCCCC(=O)N[C@H]1C[C@@H](O)[C@@H](NCCN)NC(=O)[C@@H]2[C@@H](O)CCN2C(=O)[C@H]([C@H](O)CCN)NC(=O)[C@H]([C@H](O)[C@@H](O)c2ccc(O)cc2)NC(=O)[C@@H]2C[C@@H](O)CN2C(=O)[C@H]([C@@H](C)O)NC1=O` [CASPOFUNGIN], the MIC (Rhizopus [2]) was > 256 µg/mL, the MIC (Rhizopus [3]) was > 256 µg/mL and the MIC (Rhizopus [4]) was > 256 µg/mL. For the same compound, the MIC (Absidia [5]) was > 256 µg/mL, the MIC (Absidia [6]) was > 256 µg/mL and the MIC (Absidia [7]) was > 256 µg/mL. For the same compound, the MIC (Cunninghamella) was > 256 µg/mL, the MIC (Syncephalastrum) was > 256 µg/mL and the MIC (Rhizomucor) was 128 µg/mL (≈ 117 µM). The MIC (Mucor [8]) was 256 µg/mL (≈ 234 µM), the MIC (Mucor [9]) was > 256 µg/mL and the MIC (Mucor [10]) was 256 µg/mL (≈ 234 µM).
